Columns and labels:
Assay type in all cases: in vivo
[1] = test system: ivy-leaved morning glory (Ipomoea hederacea); test: Test G Pre-Emergence Protocol; conditions: Ipomoea, pre-emergence, 312 h, evaluated after 13 days; for pest or weed control at 15.625 g/ha: 15.625 g ai/ha; for pest or weed control at 15.625 g/ha / pest or weed control at 250 g/ha: read-out: Morningglory, Ivy-leaved damage rating (100=total damage to plant; 0=no damage to plant); for pest or weed control at 62.5 g/ha: 62.5 g ai/ha, 100=total damage to plant, 0=no damage to plant, read-out: Morningglory, Ivy-leaved damage rating; for pest or weed control at 250 g/ha: 250 g ai/ha
In short: (§1)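 Pots of seeds in standard soil were grown for one day in a glasshouse (24/16 °C day/night, 14 h light, 65% humidity), then sprayed with compound in acetone/water 50:50 with 0.5% Tween 20 at 15.625, 62.5 or 250 g/ha. Damage was scored after 13 days on a 0 (none) to 100 (total) scale.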

[2] = test system: giant foxtail (Setaria faberi); test: Test G Pre-Emergence Protocol; conditions: Setaria faberi, pre-emergence, 312 h, evaluated after 13 days; for pest or weed control at 15.625 g/ha: 15.625 g ai/ha; for pest or weed control at 15.625 g/ha / pest or weed control at 250 g/ha: read-out: Foxtail, Giant damage rating (100=total damage to plant; 0=no damage to plant); for pest or weed control at 62.5 g/ha: 62.5 g ai/ha, 100=total damage to plant, 0=no damage to plant, read-out: Foxtail, Giant damage rating; for pest or weed control at 250 g/ha: 250 g ai/ha
In short: as §1

[3] = test system: redroot pigweed (Amaranthus retroflexus); test: Test G Pre-Emergence Protocol; conditions: Amaranthus retroflexus, pre-emergence, 312 h, evaluated after 13 days; for pest or weed control at 15.625 g/ha: 15.625 g ai/ha; for pest or weed control at 15.625 g/ha / pest or weed control at 250 g/ha: read-out: Pigweed, Redroot damage rating (100=total damage to plant; 0=no damage to plant); for pest or weed control at 62.5 g/ha: 62.5 g ai/ha, 100=total damage to plant, 0=no damage to plant, read-out: Pigweed, Redroot damage rating; for pest or weed control at 250 g/ha: 250 g ai/ha
In short: as §1

corn (Zea mays) [4] = test: Test G Pre-Emergence Protocol; conditions: Zea mays, pre-emergence, 312 h, evaluated after 13 days; for plant injury at 15.625 g/ha: 15.625 g ai/ha; for plant injury at 15.625 g/ha / plant injury at 250 g/ha: read-out: Corn damage rating (100=total damage to plant; 0=no damage to plant); for plant injury at 62.5 g/ha: 62.5 g ai/ha, 100=total damage to plant, 0=no damage to plant, read-out: Corn damage rating; for plant injury at 250 g/ha: 250 g ai/ha
In short: as §1

[5] = test system: velvetleaf (Abutilon theophrasti); test: Test G Pre-Emergence Protocol; conditions: Abutilon theophrasti, pre-emergence, 312 h, evaluated after 13 days; for pest or weed control at 15.625 g/ha: 15.625 g ai/ha; for pest or weed control at 15.625 g/ha / pest or weed control at 250 g/ha: read-out: Velvetleaf damage rating (100=total damage to plant; 0=no damage to plant); for pest or weed control at 62.5 g/ha: 62.5 g ai/ha, 100=total damage to plant, 0=no damage to plant, read-out: Velvetleaf damage rating; for pest or weed control at 250 g/ha: 250 g ai/ha
In short: as §1

[6] = test system: barnyardgrass (Echinochloa crus-galli); test: Test G Pre-Emergence Protocol; conditions: Echinochloa crus-galli, pre-emergence, 312 h, evaluated after 13 days; for pest or weed control at 15.625 g/ha: 15.625 g ai/ha; for pest or weed control at 15.625 g/ha / pest or weed control at 250 g/ha: read-out: Barnyardgrass damage rating (100=total damage to plant; 0=no damage to plant); for pest or weed control at 62.5 g/ha: 62.5 g ai/ha, 100=total damage to plant, 0=no damage to plant, read-out: Barnyardgrass damage rating; for pest or weed control at 250 g/ha: 250 g ai/ha
In short: as §1

[7] = test system: ivy-leaved morning glory (Ipomoea hederacea); test: Test G Post-Emergence Protocol; conditions: Ipomoea, post-emergence, 312 h, read-out: Morningglory, Ivy-leaved damage rating; for pest or weed control at 15.625 g/ha: 15.625 g ai/ha, evaluated after 13 days (100=total damage to plant; 0=no damage to plant); for pest or weed control at 62.5 g/ha: 62.5 g ai/ha; for pest or weed control at 62.5 g/ha / pest or weed control at 250 g/ha: evaluated after 13 days, 100=total damage to plant, 0=no damage to plant; for pest or weed control at 250 g/ha: 250 g ai/ha
In short: (§2)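 Pot-grown seedlings, 8 days old, raised in a glasshouse at 24/16 °C day/night with 14 h light and 65% humidity, were sprayed post-emergence with test compound in acetone/water (50:50) plus 0.5% Tween 20 at 15.625, 62.5 or 250 g/ha. Damage was scored visually 13 days later on a 0–100 scale (100 = total damage).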

[8] = test system: giant foxtail (Setaria faberi); test: Test G Post-Emergence Protocol; conditions: Setaria faberi, post-emergence, 312 h, read-out: Foxtail, Giant damage rating; for pest or weed control at 15.625 g/ha: 15.625 g ai/ha, evaluated after 13 days (100=total damage to plant; 0=no damage to plant); for pest or weed control at 62.5 g/ha: 62.5 g ai/ha; for pest or weed control at 62.5 g/ha / pest or weed control at 250 g/ha: evaluated after 13 days, 100=total damage to plant, 0=no damage to plant; for pest or weed control at 250 g/ha: 250 g ai/ha
In short: as §2

[9] = test system: redroot pigweed (Amaranthus retroflexus); test: Test G Post-Emergence Protocol; conditions: Amaranthus retroflexus, post-emergence, 312 h, read-out: Pigweed, Redroot damage rating; for pest or weed control at 15.625 g/ha: 15.625 g ai/ha, evaluated after 13 days (100=total damage to plant; 0=no damage to plant); for pest or weed control at 62.5 g/ha: 62.5 g ai/ha; for pest or weed control at 62.5 g/ha / pest or weed control at 250 g/ha: evaluated after 13 days, 100=total damage to plant, 0=no damage to plant; for pest or weed control at 250 g/ha: 250 g ai/ha
In short: as §2

corn (Zea mays) [10] = test: Test G Post-Emergence Protocol; conditions: Zea mays, post-emergence, 312 h, read-out: Corn damage rating; for plant injury at 15.625 g/ha: 15.625 g ai/ha, evaluated after 13 days (100=total damage to plant; 0=no damage to plant); for plant injury at 62.5 g/ha: 62.5 g ai/ha; for plant injury at 62.5 g/ha / plant injury at 250 g/ha: evaluated after 13 days, 100=total damage to plant, 0=no damage to plant; for plant injury at 250 g/ha: 250 g ai/ha
In short: as §2

[11] = test system: velvetleaf (Abutilon theophrasti); test: Test G Post-Emergence Protocol; conditions: Abutilon theophrasti, post-emergence, 312 h, read-out: Velvetleaf damage rating; for pest or weed control at 15.625 g/ha: 15.625 g ai/ha, evaluated after 13 days (100=total damage to plant; 0=no damage to plant); for pest or weed control at 62.5 g/ha: 62.5 g ai/ha; for pest or weed control at 62.5 g/ha / pest or weed control at 250 g/ha: evaluated after 13 days, 100=total damage to plant, 0=no damage to plant; for pest or weed control at 250 g/ha: 250 g ai/ha
In short: as §2

[12] = test system: barnyardgrass (Echinochloa crus-galli); test: Test G Post-Emergence Protocol; conditions: Echinochloa crus-galli, post-emergence, 312 h, read-out: Barnyardgrass damage rating; for pest or weed control at 15.625 g/ha: 15.625 g ai/ha, evaluated after 13 days (100=total damage to plant; 0=no damage to plant); for pest or weed control at 62.5 g/ha: 62.5 g ai/ha; for pest or weed control at 62.5 g/ha / pest or weed control at 250 g/ha: evaluated after 13 days, 100=total damage to plant, 0=no damage to plant; for pest or weed control at 250 g/ha: 250 g ai/ha
In short: as §2

Compound | pest or weed control at 15.625 g/ha [1] | pest or weed control at 62.5 g/ha [1] | pest or weed control at 250 g/ha [1] | pest or weed control at 15.625 g/ha [2] | pest or weed control at 62.5 g/ha [2] | pest or weed control at 250 g/ha [2] | pest or weed control at 15.625 g/ha [3] | pest or weed control at 62.5 g/ha [3] | pest or weed control at 250 g/ha [3] | plant injury at 15.625 g/ha (corn (Zea mays) [4]) | plant injury at 62.5 g/ha (corn (Zea mays) [4]) | plant injury at 250 g/ha (corn (Zea mays) [4]) | pest or weed control at 15.625 g/ha [5] | pest or weed control at 62.5 g/ha [5] | pest or weed control at 250 g/ha [5] | pest or weed control at 15.625 g/ha [6] | pest or weed control at 62.5 g/ha [6] | pest or weed control at 250 g/ha [6] | pest or weed control at 15.625 g/ha [7] | pest or weed control at 62.5 g/ha [7] | other results
CCOc1cc([C@@H]2CN(C)C(=O)[C@H]2C(=O)Nc2cccc(F)c2F)cc(C(F)(F)F)n1 (racemic) [Compound 1753] | 0% | 0% | 80% | 70% | 80% | 90% | 0% | 0% | 60% | 0% | 0% | 60% | 0% | 0% | 0% | 30% | 70% | 80% | 20% | 50% | pest or weed control at 250 g/ha [7]: 60%; pest or weed control at 15.625 g/ha [8]: 60%; pest or weed control at 62.5 g/ha [8]: 60%; pest or weed control at 250 g/ha [8]: 70%; pest or weed control at 15.625 g/ha [9]: 0%; pest or weed control at 62.5 g/ha [9]: 20%; pest or weed control at 250 g/ha [9]: 30%; plant injury at 15.625 g/ha (corn (Zea mays) [10]): 60%; plant injury at 62.5 g/ha (corn (Zea mays) [10]): 60%; plant injury at 250 g/ha (corn (Zea mays) [10]): 80%; pest or weed control at 15.625 g/ha [11]: 10%; pest or weed control at 62.5 g/ha [11]: 20%; pest or weed control at 250 g/ha [11]: 30%; pest or weed control at 15.625 g/ha [12]: 40%; pest or weed control at 62.5 g/ha [12]: 70%; pest or weed control at 250 g/ha [12]: 70%
Cc1c(F)cccc1NC(=O)[C@@H]1C(=O)N(C)C[C@H]1c1cccc(OCC2CC2)c1 (racemic) [Compound 1766] | 0% | 0% | 0% | 30% | 70% | 70% | 0% | 0% | 0% | 20% | 10% | 20% | 0% | 0% | 10% | 10% | 60% | 80% | 0% | 20% | pest or weed control at 250 g/ha [7]: 40%; pest or weed control at 15.625 g/ha [8]: 20%; pest or weed control at 62.5 g/ha [8]: 50%; pest or weed control at 250 g/ha [8]: 80%; pest or weed control at 15.625 g/ha [9]: 0%; pest or weed control at 62.5 g/ha [9]: 0%; pest or weed control at 250 g/ha [9]: 20%; plant injury at 15.625 g/ha (corn (Zea mays) [10]): 30%; plant injury at 62.5 g/ha (corn (Zea mays) [10]): 20%; plant injury at 250 g/ha (corn (Zea mays) [10]): 60%; pest or weed control at 15.625 g/ha [11]: 0%; pest or weed control at 62.5 g/ha [11]: 0%; pest or weed control at 250 g/ha [11]: 10%; pest or weed control at 15.625 g/ha [12]: 60%; pest or weed control at 62.5 g/ha [12]: 30%; pest or weed control at 250 g/ha [12]: 80%
CN1C[C@H](c2ccc(Cl)cc2)[C@@H](C(=O)Nc2ccc(F)nc2F)C1=O [Compound 1811] | 0% | 20% | 80% | 90% | 90% | 90% | 30% | 70% | 80% | 0% | 70% | 80% | 10% | 50% | 70% | 80% | 90% | 90% | 40% | 20% | pest or weed control at 250 g/ha [7]: 70%; pest or weed control at 15.625 g/ha [8]: 80%; pest or weed control at 62.5 g/ha [8]: 80%; pest or weed control at 250 g/ha [8]: 80%; pest or weed control at 15.625 g/ha [9]: 20%; pest or weed control at 62.5 g/ha [9]: 60%; pest or weed control at 250 g/ha [9]: 80%; plant injury at 15.625 g/ha (corn (Zea mays) [10]): 40%; plant injury at 62.5 g/ha (corn (Zea mays) [10]): 60%; plant injury at 250 g/ha (corn (Zea mays) [10]): 80%; pest or weed control at 15.625 g/ha [11]: 10%; pest or weed control at 62.5 g/ha [11]: 30%; pest or weed control at 250 g/ha [11]: 50%; pest or weed control at 15.625 g/ha [12]: 80%; pest or weed control at 62.5 g/ha [12]: 80%; pest or weed control at 250 g/ha [12]: 80%
